The subject of the assay is HCT-116 cell lines. Description: MTT cell proliferation assay. It is filed as cell-based. On the procedure:
For cell culture experiments various cancer cell lines, HCT-116 colon cancer, U87-MG glial tumor, MCF7 breast cancer cell lines were used. Cells were seeded with high glucose DMEM medium (Biosera) supplemented with 10% FBS (Gibco) and 1× penicillin/streptomycin (Multicell). Twenty-four hours prior to molecule treatment, 10,000 cells were seeded into each well of 24-well cell culture plates. Molecules were used by preparing 4 mM stock solution in DMSO (Amresco). For molecule treatment, molecule stock solutions were diluted in DMEM with 10% FBS and added onto cells in each corresponding well. Final concentration of vehicle DMSO was 2% at maximum. […] We calculated the number of cells to be seeded to make sure that none of the cells reaches more than 60% confluency during the treatment period, as higher plate confluency levels would slow down cell proliferation independently from the molecule treatment.
Values of half-maximal inhibitory concentration were (IC50) determined by MTT cell proliferation assays. […] 570 nm absorbance values were recorded and IC50 values were calculated by dose response—inhibition curves and nonlinear regression analysis on GraphPad Prism 8 software. […] Following the initial incubation day, molecules were added and after incubation with MTT at 37° C. for 4 hours, formazan was solubilized with DMSO (Sigma-Aldrich, St. Louis, USA) and absorbance was measured at 570 nm. […]

Molecules are shown by their SMILES.

This note sets out measurements from patent publication US12297175B2, “Physics-driven discovery of novel small therapeutic compounds for use as a BCL-2 inhibitor” (BAHCESEHIR UNIVERSITESI, priority 2020, dated 2025).

With `Cc1ccc(C2CC(=O)N=C(SCC(=O)Nc3ccc(Br)cc3Cl)C2C#N)cc1` (centres unmarked) [compound of formula I], the “cell proliferation compared with vehicle group (FIG. 1)” value (HCT-116 cells, cell viability over time vs vehicle (max 2% DMSO)) was “reduced proliferation and apoptotic cell structures”. Besides, where the note is “Homo sapiens, 72 h, HCT-116 colon cancer cells, single treatment, three days results, 570 nm absorbance, read-out: IC50 value (half-maximal inhibitory concentration)”, the IC50 was 24 µM.
